Experimental data from PMC9741287, “Cytotoxic and Luminescent Properties of Novel Organotin Complexes with Chelating Antioxidant Ligand” (Molecules, 2022).
Several values for one entry are separate records, joined by “and”; a condition that tells them apart may be missing. Equal entries are not always repeated.

How the values were obtained:
[1] = tested on: WI-38 (human fetal lung fibroblast); assay: MTT-test WI-38; assay type: cell-based
Method: (§1) Since the investigated compounds are designed as theranostic and cytostatic agents, their toxic impact was evaluated as a standard MTT-test. Cytotoxicity was studied on four cell lines, i.e.,—HCT116 (human colorectal carcinoma), MCF-7 (human breast cancer), A549 (human lung adenocarcinoma), and WI-38 (human fetal lung fibroblast). Obtained results appear to be unorthodox: as it is known, the introduction of an organotin moiety tends to noticeably increase compounds’ toxicity and more lipophilic ones do it better, but in the presented data pattern turns vice versa (Table 3).
(§2) HCT-116 (colon carcinoma), MCF-7 (breast adenocarcinoma), A-549 (lung adenocarcinoma) cell lines, and WI-38 (cell line composed of fibroblasts) were derived from The European Collection of Authenticated Cell Cultures (ECACC, Salisbury, UK), cultured in DMEM medium (Gibco™, Dublin, Ireland) supplemented with 10% fetal bovine serum (Gibco™, Brasilia, Brazil). The cells were cultured in an incubator at 37 °C in a humidified 5% CO2 atmosphere and subcultured two times a week.
(§3) The toxicity of compounds was studied on cultured cell lines according to standard MTT protocol.

[2] = target: T1, Soybean lipoxygenase LOX-1B (Glycine max, UniProt P08170); assay: Lipoxygenase inhibition assay; assay type: biochemical; conditions: 3 µL of 1 mM compound in DMSO per 150 µL; 5 min, 20 °C; 234 nm
T1 sequence (P08170 1-839): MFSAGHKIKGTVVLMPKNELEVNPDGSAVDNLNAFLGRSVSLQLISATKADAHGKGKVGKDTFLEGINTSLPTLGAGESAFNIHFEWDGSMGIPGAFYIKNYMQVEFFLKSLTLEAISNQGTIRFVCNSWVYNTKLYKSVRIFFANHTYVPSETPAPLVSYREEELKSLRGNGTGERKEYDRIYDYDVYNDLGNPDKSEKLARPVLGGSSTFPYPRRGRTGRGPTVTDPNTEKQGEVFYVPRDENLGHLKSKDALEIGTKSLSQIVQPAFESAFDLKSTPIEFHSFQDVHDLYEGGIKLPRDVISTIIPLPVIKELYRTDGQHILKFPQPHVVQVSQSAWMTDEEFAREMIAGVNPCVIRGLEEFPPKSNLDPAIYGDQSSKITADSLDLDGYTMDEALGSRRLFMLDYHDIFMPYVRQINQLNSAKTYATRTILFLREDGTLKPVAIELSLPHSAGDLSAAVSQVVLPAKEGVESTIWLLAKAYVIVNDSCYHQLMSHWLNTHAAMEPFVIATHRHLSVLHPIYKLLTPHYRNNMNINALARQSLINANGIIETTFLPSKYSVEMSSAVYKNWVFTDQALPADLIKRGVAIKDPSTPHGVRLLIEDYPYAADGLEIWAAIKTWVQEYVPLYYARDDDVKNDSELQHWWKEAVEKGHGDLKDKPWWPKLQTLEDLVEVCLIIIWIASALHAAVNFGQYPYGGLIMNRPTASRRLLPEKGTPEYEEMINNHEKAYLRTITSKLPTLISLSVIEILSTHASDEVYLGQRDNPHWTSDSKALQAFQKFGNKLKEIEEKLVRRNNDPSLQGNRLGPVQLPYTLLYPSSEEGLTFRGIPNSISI
Excerpt: Lipoxygenases are a group of enzymes catalyzing regioselective oxidation of polyunsaturated fatty acids to corresponding hydroperoxides. […] Soybean lipoxygenase LOX-1B was used as a model enzyme since it is structurally relative to human 5-lipoxygenases. The influence of synthesized compounds 1–7 on the LOX-1B activity was estimated as a formation rate of octadecadienoic acid hydroperoxides (λmax = 234 nm) from the initial acid and was monitored spectrophotometrically (Table 1).
The lipoxygenase activity was evaluated spectrophotometrically. The concentrations of linoleic acid oxidation products, isomeric hydroperoxides, were measured at λmax = 234 nm (ε = 25,000 L mol^−1 cm^−1) with a 96-well microplate spectrophotometer Multiskan Go (Thermo Fisher Scientific, Waltham, MA, USA). The analyzed solution contained 30 µL borate buffer (pH 9.0), 100 µL linoleic acid (0.45 mM) in borate buffer, and 3 µL 1 mM solution of the test compound in DMSO. The reaction was initiated by the addition of 17 µL of lipoxygenase (500 U) solution in borate buffer. The measurements were performed for 5 min at 20 °C.
The inhibition rate I (%) of lipoxygenase was determined by the Equations (2) and (3), where A0 is the absorbance of the control solution, and A1 is the absorbance of the reaction mixture in the presence of the tested compound 5 min after the beginning of the reaction. ΔA is the difference between A1 and A0. All experiments were performed in triplicate.

[3] = Luminescence / photophysical properties; assay type: physicochemical
Method: Their quantum yields reached 20%, which together with their high absorption (Table 4) makes them highly emissive even in powders.
The registration of luminescence spectra of powders and solutions in the visible range as well as the measurement of quantum yields were carried out with Horiba FluoroMax Plus, with xenon lamp as excitation source at room temperature; excitation was performed through a ligand (λex = 365 nm). The quantum yield was measured by the absolute method in the integrating sphere.

[4] = DPPH-test (radical scavenging)
Excerpt: 2,2-Diphenyl-1-picrylhydrazyl (DPPH)—is a stable N-centered chromophore radical with absorption peak λmax = 517 nm, while its reduced form is pale yellow. Its reduction can be monitored spectrophotometrically and is a well-known and convenient way of evaluating radical scavenging activity. […] This may be caused by the participation not of only the sterically hindered phenolic group in the process of radical scavenging, but salicylic phenolic group and probably hydrazide fragment as well. The abovementioned structural moieties participate in the coordination of tin atoms, and therefore are excluded from the mechanism of antioxidant action of complexes. […] The introduction of tin is known to lower the radical scavenging capacity of corresponding ligands and is estimated as referred previously. The only exception is complex 7, bearing two 2,6-di-tert-butylphenols pendants attached directly to the tin.
The activity of synthesized compounds as radical scavengers was estimated spectrophotometrically at λmax = 517 nm using stable radical 2,2-diphenyl-1-picrylhydrazyl (Sigma-Aldrich) according to the known procedure. The reaction mixture contained DPPH (0.75 mL, 0.2 mM) and a solution of the test compound in EtOH (0.75 mL, 0.2 mM), and was put in 1 cm glass cuvettes. The measurements were carried out for 20 h and the results were calculated using Microsoft Excel 2010. Antioxidant activity was expressed as the percentage of reduced DPPH according to the Equation (1):I (%) = ((A0 − A1)/A0) × 100(1) where A0 is the absorbance of the control 0.1 mM DPPH in EtOH, ε DPPH = 1.15·× 10^4, and A1 is the absorbance of the reaction mixture in the presence of the test compound.

[5] = tested on: MCF-7 (human breast cancer); assay: MTT-test MCF-7; assay type: cell-based
Method: as §1, §2, §3

Structure (SMILES): CC(C)(C)c1cc(C2=NN=Cc3ccccc3[O][Sn]([c]3cc(C(C)(C)C)c(O)c(C(C)(C)C)c3)([c]3cc(C(C)(C)C)c(O)c(C(C)(C)C)c3)[O]2)cc(C(C)(C)C)c1O [Compound 7, (2,6-Di-tert-butylphenol)2SnL]
- IC50 [1]: 10.6 ± 3.5 µM
- I (LOX Inhibition Assay) [2]: 66.0 ± 5.9%
- λmax (absorption) [3]: 402 nm
- Quantum Yield, DMSO Solution 10 µM ([3]; DMSO, 10 µM, λex = 365 nm): 21 ± 2%
- Quantum Yield, DMSO Solution 100 µM ([3]; DMSO, 100 µM, λex = 365 nm): 42 ± 1%
- Quantum Yield, DMSO Solution 1000 µM ([3]; DMSO, 1000 µM, λex = 365 nm): 32 ± 2%
- ε (λmax) ([3]; at absorption λmax): 13,270 M^−1·cm^−1
- Luminosity (λmax) ([3]; at λmax): 557,340, (402) M^−1·cm^−1
- Quantum Yield, Powders ([3]; solid (compound 4 is an oil), λex = 365 nm): 20% and 20 ± 2%
- Luminosity (λ = 365 nm) ([3]; λ = 365 nm): 294,084 M^−1·cm^−1
- ε (λ = 365 nm) ([3]; λ = 365 nm): 7002 M⁻¹ cm⁻¹
- EC50 [4]: 12.8 µM
- IC50 [5]: 32.7 ± 9.5 µM
